Measured values as given in patent publication US20140093525A1, “COMPOSITIONS AND METHODS OF TREATING OPIOID ADDICTION” (Minneapolis Medical Research Foundation, priority 2012, published 2014).
Like-named read-outs stand apart in the source and are kept apart here. Where a SMILES comes first, the peptide text is derived from it. The star is where a group is joined. X1 = COc1ccc2c3c1OC1C(=NOCC(=O)*)CCC4(O)C(C2)N(C)CCC314

Assays:
Anti-OXY antibodies = experiment: Competitive ELISA of serum from animals immunized with OXY(Gly)4-KLH, OXY(Gly)4-OVA as coating antigen; assay type: binding, rat
Method: Because plateau values differed, IC50 values for each inhibitor were calculated based on the percentage of inhibition of the optical density of primary antibodies incubated with saline.

Male Holtzman rats [1] = experiment: Example 4: thermal nociception (hot plate) after OXY, naltrexone and OXY-KLH vaccine; assay type: in vivo, rat
Method: Male Holtzman rats immunized once every 3 weeks for a total of 3 injections i.p., with 25 μg immunogen in Freund's adjuvant.
Significant differences existed between saline pretreated control rats and rats receiving NLTX. For pharmacokinetic experiments NLTX dose of 0.003 mg/kg was chosen based on MPE %. *p<0.05.

Male Holtzman rats [2] = experiment: Example 4: drug distribution studies (OXY in serum and brain); assay type: in vivo, rat; conditions: pre-treatment with 0.003 mg/kg NLTX; 2.25 mg/kg OXY s.c.
Method: Plasma and brain collected at 33 min after behavioral assessment on the hot plate, and measured using gas chromatography coupled to mass spectrometry.

[3] = tested on: serum antibodies elicited by OXY-KLH; experiment: Competition ELISA of serum from rats vaccinated with OXY-KLH
[4] = tested on: serum antibodies elicited by M-KLH; experiment: Competition ELISA of serum from rats vaccinated with M-KLH
[5] = relative to OXY, OXY(Gly)4-OVA as ELISA coating antigen

Compound	affinity, competition or binding to antibodies (in words) (Anti-OXY antibodies)	Cross-Reactivity (%) (Anti-OXY antibodies)	IC50 (Anti-OXY antibodies) [nM]	relative affinity of antiserum / cross-reactivity (in words) [3]	relative affinity of antiserum / cross-reactivity (in words) [4]	also measured
CCC(=O)C(CC(C)N(C)C)(c1ccccc1)c1ccccc1 (stereo not drawn) [Methadone]	no measurable binding					
CN1CC[C@]23c4c5ccc(O)c4O[C@H]2[C@@H](O)C=C[C@H]3[C@H]1C5 [Morphine]	substantially lower	0.1				
O=C1CC[C@@]2(O)[C@H]3Cc4ccc(O)c5c4[C@@]2(CCN3CC2CC2)[C@H]1O5 [Naltrexone]	substantially lower					IC50 (Anti-OXY antibodies; competitive binding, OXY(Gly)4-OVA as ELISA coating antigen): 5000 nM; Cross-Reactivity (%) (Anti-OXY antibodies; [5]): 0.4%; effect on acute behavioral effects of OXY, thermal nociception (in words) (Male Holtzman rats [1]; NLTX 0.001-0.01 mg/kg s.c. 15 min prior to 2.25 mg/kg OXY): dose-dependently blocks; effect on behavioral tolerance to OXY (in words) (Male Holtzman rats [1]; repeated OXY administration): unable to block the effects of tolerance; effect on distribution of OXY in immunized rats (in words) (Male Holtzman rats [2]): does not alter the distribution of OXY
C=CCN1CC[C@]23c4c5ccc(O)c4O[C@H]2C(=O)CC[C@@]3(O)[C@H]1C5 [Naloxone]						affinity, competition or binding to antibodies (in words) (Anti-OXY antibodies; competitive ELISA, serum from OXY(Gly)4-KLH immunized animals): substantially lower; Cross-Reactivity (%) (Anti-OXY antibodies; [5]): 1.2%
CN1CC[C@]23c4c5ccc(O)c4O[C@H]2C(=O)CC[C@@]3(O)[C@H]1C5 [Oxymorphone]		63	30	high relative affinities		
tetraglycine [(Gly)4]	no measurable competition or binding			negligible cross-reactivity	negligible	
COc1ccc2c3c1O[C@H]1C(=O)CC[C@H]4[C@@H](C2)N(C)CC[C@]314 [Hydrocodone]	substantially lower	0.2	10000	relatively low IC50 values	relatively low IC50 values	
CC(=O)Oc1ccc2c3c1O[C@H]1[C@@H](OC(C)=O)C=C[C@H]4[C@@H](C2)N(C)CC[C@@]341 [heroin]				low relative affinity	high relative affinities	
COc1ccc2c3c1O[C@H]1C(=O)CC[C@@]4(O)[C@@H](C2)N(C)CC[C@]314 [OXY, Oxycodone]	high affinities	100	17			
COc1ccc2c3c1OC1C(=NOCC(=O)NCC(=O)NCC(=O)NCC(=O)NCC(=O)O)CCC4(O)C(C2)N(C)CCC314 (stereo not drawn) [OXY(Gly)4] (X1-GGGG-OH)	high affinities	>100	3			
